Test results published in US20110092547A1 (priority 2007, published 2011).

What follows are molecules tested against T1, human DGAT1 (Homo sapiens, UniProt O75907) (assay: Human enzyme assay, further developed assay (14C oleoyl CoA, 96 well plate)). Settings: human DGAT1 expressed in insect cell (sf9) membranes.
T1 construct: made in house; host or cells: Sf9 insect cells (recombinant baculovirus); membrane fraction
T1 sequence (O75907 1-488): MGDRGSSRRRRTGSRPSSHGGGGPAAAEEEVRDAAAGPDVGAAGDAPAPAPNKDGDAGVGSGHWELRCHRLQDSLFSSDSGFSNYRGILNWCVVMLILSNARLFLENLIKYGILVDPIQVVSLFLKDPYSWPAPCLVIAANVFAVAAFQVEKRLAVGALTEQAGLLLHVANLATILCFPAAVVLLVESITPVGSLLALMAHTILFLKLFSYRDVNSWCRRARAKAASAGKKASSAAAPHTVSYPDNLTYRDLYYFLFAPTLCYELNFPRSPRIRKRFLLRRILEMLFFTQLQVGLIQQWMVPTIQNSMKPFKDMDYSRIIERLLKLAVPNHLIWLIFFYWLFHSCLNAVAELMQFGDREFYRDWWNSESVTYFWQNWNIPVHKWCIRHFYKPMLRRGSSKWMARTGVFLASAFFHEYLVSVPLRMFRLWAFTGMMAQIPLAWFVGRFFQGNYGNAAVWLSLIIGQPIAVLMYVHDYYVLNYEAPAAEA
Format: biochemical
Protocol: The in vitro assay to identify DGAT1 inhibitors uses human DGAT1 expressed in insect cell membranes as the enzyme source (Proc. Natl. Acad. Sci. 1998, 95, 13018-13023). Briefly, sf9 cells were infected with recombinant baculovirus containing human DGAT1 coding sequences and harvested after 48 h. Cells were lysed by sonication and membranes isolated by centrifuging at 28000 rpm for 1 h at 4° C. on a 41% sucrose gradient. The membrane fraction at the interphase was collected, washed, and stored in liquid nitrogen.
In a further developed assay, DGAT1 activity was assayed by a modification of the method described by Coleman (Methods in Enzymology 1992, 209, 98-102). Compound at 0.00003-10 μM (final cone) was incubated with 25 μg/ml (final cone) membrane protein, 5 mM MgCl2, and 100 μM 1,2 dioleoyl-sn-glycerol in a total assay volume of 200 μl in a 96 well plate. The reaction was started by adding ^14C oleoyl coenzyme A (30 μM final concentration) and incubated at room temperature for 30 minutes. The reaction was stopped by adding 300 μl 2-propanol:heptane 7:1. Radioactive triolein product was separated into the organic phase by adding 200 μl heptane and 200 μl 0.1 M carbonate buffer pH 9.5. DGAT1 activity was quantified by counting aliquots of the upper heptane layer by liquid scintillography.

First: O=C(Nc1ccc(O[C@H]2CC[C@@H](C(=O)O)CC2)nc1F)c1nnc(Nc2cc(F)c(F)cc2F)o1 [Example 70, (1s,4s)-4-(6-Fluoro-5-(5-(2,4,5-trifluorophenylamino)-1,3,4-oxadiazole-2-carboxamido)pyridin-2-yloxy)cyclohexanecarboxylic acid]
Second: O=C(Nc1ccc(OC2CCC(C(=O)O)CC2)nc1)c1nnc(Nc2cc(F)c(F)cc2F)o1 (stereo not shown) [Example 19, 4-({5-[({5-[(2,4,5-trifluorophenyl)amino]-1,3,4-oxadiazol-2-yl}carbonyl)amino]pyridin-2-yl}oxy)cyclohexanecarboxylic acid]
The IC50 of the first is 2.9-fold lower: 0.0041 µM for the first, 0.012 µM for the second. The first is the more potent here.

Compared with `Cc1ccc(Nc2nnc(C(=O)Nc3ccc(O[C@H]4CC[C@@H](C(=O)O)CC4)nc3)o2)cc1Cl` [Example 15, (1s,4s)-4-(5-(5-(3-chloro-4-methylphenylamino)-1,3,4-oxadiazole-2-carboxamido)pyridin-2-yloxy)cyclohexanecarboxylic acid], `O=C(Nc1ccc(O[C@H]2CC[C@H](C(=O)O)CC2)nc1)c1nnc(Nc2ccc(F)c(Cl)c2)o1` [Example 24, (1r,4r)-4-(5-(5-(3-chloro-4-fluoro-phenylamino)-1,3,4-oxadiazole-2-carboxamido)pyridin-2-yloxy)cyclo-hexane-carboxylic acid] is 2.5-fold higher in IC50: 0.008 µM for the first, 0.02 µM for the second.

Compared with `CC(C)c1ccc(Nc2nnc(C(=O)Nc3ccc(O[C@H]4C[C@@H](C(=O)O)C4)nc3)o2)cc1` [Example 63], `CC(C)c1ccc(Nc2nnc(C(=O)Nc3ccc(O[C@H]4C[C@H](C(=O)O)C4)nc3)o2)cc1` [Example 64] is 16-fold lower in IC50: 0.03 µM for the first, 0.0019 µM for the second. The second is the more potent here.

Compared with `O=C(Nc1cnc(O[C@H]2CC[C@@H](C(=O)O)CC2)c(F)c1)c1nnc(Nc2ccc(F)c(Cl)c2)o1` [Example 61, (1s,4s)-4-(5-(5-(3-Chloro-4-fluorophenylamino)-1,3,4-oxadiazole-2-carboxamido)-3-fluoropyridin-2-yloxy)cyclohexanecarboxylic acid], `O=C(Nc1ccc(O[C@H]2CC[C@@H](C(=O)O)CC2)nc1)c1nnc(Nc2ccc(F)c(Cl)c2)o1` [Example 16, (1s,4s)-4-(5-(5-(3-chloro-4-fluorophenylamino)-1,1,4-oxadiazole-2-carboxamido)pyridin-2-yloxy)cyclohexanecarboxylic acid] is 5-fold lower in IC50: 0.019 µM for the first, 0.0038 µM for the second.

Going from `O=C(Nc1ccc(O[C@H]2CC[C@@H](C(=O)O)CC2)nc1F)c1nnc(Nc2ccc(F)c(Cl)c2)o1` [Example 55, (1s,4s)-4-(5-(5-(3-Chloro-4-fluorophenylamino)-1,3,4-oxadiazole-2-carboxamido)-6-fluoropyridin-2-yloxy)cyclohexanecarboxylic acid] to `O=C(Nc1ccc(O[C@H]2CC[C@H](C(=O)O)CC2)nc1)c1nnc(Nc2ccc(Br)cc2Cl)o1` [Example 33, (1r,4r)-4-(5-(5-(4-bromo-2-chloro-phenylamino)-1,3,4-oxadiazole-2-carboxamido)pyridin-2-yloxy)cyclo-hexane-carboxylic acid], the IC50 rises from 0.0021 µM to 0.022 µM (10-fold).

Going from `O=C(Nc1ccc(O[C@H]2CC[C@@H](C(=O)O)CC2)nc1)c1nnc(Nc2cccc(Cl)c2)o1` [Example 7, (1s,4s)-4-(5-(5-(3-chlorophenylamino)-1,3,4-oxadiazole-2-carboxamido)pyridin-2-yloxy)cyclohexanecarboxylic acid] to `O=C(Nc1ccc(O[C@H]2C[C@@H](C(=O)O)C2)nc1)c1nnc(Nc2ccc(F)c(F)c2)o1` [Example 65, cis-3-(5-(5-(3,4-difluorophenylamino)-1,3,4-oxadiazole-2-carboxamido)pyridin-2-yloxy)cyclobutanecarboxylic acid], the IC50 rises from 0.01 µM to 0.026 µM (2.6-fold). The first is the more potent here.

`C[C@]1(C(=O)O)CC[C@H](Oc2ccc(NC(=O)c3nnc(Nc4ccc(F)c(F)c4)o3)cn2)CC1` [Example 2, (1r,4r)-4-(5-(5-(3,4-difluorophenylamino)-1,3,4-oxadiazole-2-carboxamido)pyridin-2-yloxy)-1-methylcyclohexanecarboxylic acid] was tested, and the IC50 was 0.494 µM.
